# B1: Pyc: feedback-resistant pyruvate carboxylase (SEQ ID NO:2) from Corynebacterium glutamicum NRRL B-11474, also known as BF100 (protein)
# chain: MTAITLGGLLLKGIITLVSTHTSSTLPAFKKILVANRGEIAVRAFRAALETGAATVAIYPREDRGSFHRSFASEAVRIGTEGSPVKAYLDIDEIIGAAKKVKADAIYPGYGFLSENAQLARECAENGITFIGPTPEVLDLTGDKSRAVTAAKKAGLPVLAESTPSKNIDDIVKSAEGQTYPIFVKAVAGGGGRGMRFVSSPDELRKLATEASREAEAAFGDGSVYVERAVINPQHIEVQILGDRTGEVVHLYERDCSLQRRHQKVVEIAPAQHLDPELRDRICADAVKFCRSIGYQGAGTVEFLVDEKGNHVFIEMNPRIQVEHTVTEEVTEVDLVKAQMRLAAGATLKELGLTQDKIKTHGAALQCRITTEDPNNGFRPDTGTITAYRSPGGAGVRLDGAAQLGGEITAHFDSMLVKMTCRGSDFETAVARAQRALAEFTVSGVATNIGFLRALLREEDFTSKRIATGFIGDHPHLLQAPPADDEQGRILDYLADVTVNKPHGVRPKDVAAPIDKLPNIKDLPLPRGSRDRLKQLGPAAFARDLREQDALAVTDTTFRDAHQSLLATRVRSFALKPAAEAVAKLTPELLSVEAWGGATYDVAMRFLFEDPWDRLDELREAMPNVNIQMLLRGRNTVGYTPYPDSVCRAFVKEAASSGVDIFRIFDALNDVSQMRPAIDAVLETNTAVAEVAMAYSGDLSDPNEKLYTLDYYLKMAEEIVKSGAHILAIKDMAGLLRPAAVTKLVTALRREFDLPVHVHTHDTAGGQLATYFAAAQAGADAVDGASAPLSGTTSQPSLSAIVAAFAHTRRDTGLSLEAVSDLEPYWEAVRGLYLPFESGTPGPTGRVYRHEIPGGQLSNLRAQATALGLADRFELIEDNYAAVNEMLGRPTKVTPSSKVVGDLALHLVGAGVDPADFAADPQKYDIPDSVIAFLRGELGNPPGGWPEPLRTRALEGRSEGKAPLTEVPEEEQAHLDADDSKERRNSLNRLLFPKPTEEFLEHRRRFGNTSALDDREFFYGLVEGRETLIRLPDVRTPLLVRLDAISEPDDKGMRNVVANVNGQIRPMRVRDRSVESVTATAEKADSSNKGHVAAPFAGVVTVTVAEGDEVKAGDAVAIIEAMKMEATITASVDGKIERVVVPAATKVEGGDLIVVVS
# Assays:
# [1] = test system: Nc1ncnc2c1ncn2[C@@H]1O[C@H](COP(=O)(O)OP(=O)(O)OP(=O)(O)O)[C@@H](O)[C@H]1O; experiment: purified protein, by the assay type; conditions: other: permeabilized cells, pH 7.5, 30° C.
# Procedure: (§7) To account for the intrinsic loss of OAA during the experiment, a continuous assay was carried out by coupling the two-reaction assay to a one-reaction assay in presence of an excess of citrate synthase. […]
# CC(=O)C(=O)O = experiment: purified protein, by the assay type; conditions: other: permeabilized cells, pH 7.5, 30° C.
# Procedure: as §7
# [2] = test system: pyruvate carboxylase from ATCC 21253; experiment: Effect of aspartate, ATP and acetyl-CoA on pyruvate carboxylase activity, strain ATCC 21253; assay type: biochemical, Corynebacterium glutamicum
# Procedure: (§1) Pyruvate carboxylate and phosphoenol pyruvate carboxylate assays were performed with permeabilized cells prepared by the following method. Log phase cells were harvested by centrifugation for 10 min at 5000×g at 4° C. and washed with 20 ml of the ice-cold washing buffer (50 mM Tris/HCl [pH 6.3] containing 50 mM NaCl). The cell pellet was resuspended in an ice-cold Hepes buffer (100 mM Hepes [pH 7.5] containing 20% Glycerol) to reach a final concentration of 25 g dry cell weight/liter. Resuspended cells were permeabilized by adding 30 μl of a 10% Hexadecyltrimethyl-ammonium bromide (CTAB) (w/v) solution to 1 ml of cells to give a final concentration of 0.3% (CTAB)(v/v). […]
# (§2) Pyruvate carboxylase activity was determined as a function of various concentrations of its substrates: pyruvate, bicarbonate and ATP (FIG. 3). Based on the data generated, the affinity constants of pyruvate carboxylase for its substrates were determined (Table 2). […]
# (§3) Aspartate inhibits phosphoenol pyruvate carboxylase (PEPC) activity. To determine the effect of aspartate on the activity of pyruvate carboxylase, aspartate was added at different concentrations in the spectrophotometer cuvette and enzyme activities were measured. […]
# (§4) Pyruvate carboxylase activity was measured in the presence of different concentrations of acetyl-CoA (FIG. 6). […]
# [3] = test system: pyruvate carboxylase from NRRL B-11474; experiment: Effect of aspartate, ATP and acetyl-CoA on pyruvate carboxylase activity, strain NRRL B-11474; assay type: biochemical, Corynebacterium glutamicum
# Procedure: as §1, §2, §3, §4
# citrate synthase = experiment: Effect of acetyl-CoA on citrate synthase; assay type: biochemical; conditions: acetyl-CoA on citrate synthase itself
# Procedure: Pyruvate carboxylase activity was measured in the presence of different concentrations of acetyl-CoA (FIG. 6). Pyruvate carboxylase activity in both strains increased with increasing acetyl-CoA concentrations. The effect of acetyl-CoA on citrate synthase itself was studied also. […] Therefore, the increasing activity of pyruvate carboxylase with increasing acetyl-CoA concentration is the result of acetyl-CoA activating pyruvate carboxylase.
# [4] = target: Corynebacterium glutamicum NRRL B-11474 (BF100) pyruvate carboxylase, feedback-resistant variant (M1V, E153D, A182S, A206S, H227R, A455G, D1120E), SEQ ID NO:2 (Corynebacterium glutamicum, UniProt H7C7K2, A182S/A206S/A455G/D1120E/E153D/H227R/M1V)
# Procedure: Pyruvate carboxylate and phosphoenol pyruvate carboxylate assays were performed with permeabilized cells prepared by the following method. Log phase cells were harvested by centrifugation for 10 min at 5000×g at 4° C. and washed with 20 ml of the ice-cold washing buffer (50 mM Tris/HCl [pH 6.3] containing 50 mM NaCl). The cell pellet was resuspended in an ice-cold Hepes buffer (100 mM Hepes [pH 7.5] containing 20% Glycerol) to reach a final concentration of 25 g dry cell weight/liter. Resuspended cells were permeabilized by adding 30 μl of a 10% Hexadecyltrimethyl-ammonium bromide (CTAB) (w/v) solution to 1 ml of cells to give a final concentration of 0.3% (CTAB)(v/v).
# The reaction was started at 30° C. with the addition of 10 μl of the permeabilized cell suspension, and the formation of DTNB-thiophenolate was followed over time at 412 nm. Relevant standards and controls were carried out in the same manner.
# (§5) To account for the intrinsic loss of OAA during the experiment, a continuous assay was carried out by coupling the two-reaction assay to a one-reaction assay in presence of an excess of citrate synthase. The amount of permeabilized cells added in the assay was optimized to obtain a detectable activity, with the lowest possible background absorbency due to the presence of cells.
# (§6) Pyruvate carboxylase activity was determined as a function of various concentrations of its substrates: pyruvate, bicarbonate and ATP (FIG. 3). Based on the data generated, the affinity constants of pyruvate carboxylase for its substrates were determined (Table 2).
# To determine the effect of aspartate on the activity of pyruvate carboxylase, aspartate was added at different concentrations in the spectrophotometer cuvette and enzyme activities were measured. As a comparison, the same experiment was carried out with PEPC in ATCC 21253 (FIG. 5).
# Pyruvate carboxylase activity was measured in the presence of different concentrations of acetyl-CoA (FIG. 6). […] The effect of acetyl-CoA on citrate synthase itself was studied also.
# [5] = target: T1, Corynebacterium glutamicum ATCC 21253 pyruvate carboxylase, wild type, SEQ ID NO:19 (Corynebacterium glutamicum, UniProt H7C7K2); experiment: Continuous pyruvate carboxylase assay (permeabilized cells), ATCC 21253; assay type: biochemical
# T1 construct: coupled citrate synthase/DTNB assay
# T1 sequence (H7C7K2 1-1140): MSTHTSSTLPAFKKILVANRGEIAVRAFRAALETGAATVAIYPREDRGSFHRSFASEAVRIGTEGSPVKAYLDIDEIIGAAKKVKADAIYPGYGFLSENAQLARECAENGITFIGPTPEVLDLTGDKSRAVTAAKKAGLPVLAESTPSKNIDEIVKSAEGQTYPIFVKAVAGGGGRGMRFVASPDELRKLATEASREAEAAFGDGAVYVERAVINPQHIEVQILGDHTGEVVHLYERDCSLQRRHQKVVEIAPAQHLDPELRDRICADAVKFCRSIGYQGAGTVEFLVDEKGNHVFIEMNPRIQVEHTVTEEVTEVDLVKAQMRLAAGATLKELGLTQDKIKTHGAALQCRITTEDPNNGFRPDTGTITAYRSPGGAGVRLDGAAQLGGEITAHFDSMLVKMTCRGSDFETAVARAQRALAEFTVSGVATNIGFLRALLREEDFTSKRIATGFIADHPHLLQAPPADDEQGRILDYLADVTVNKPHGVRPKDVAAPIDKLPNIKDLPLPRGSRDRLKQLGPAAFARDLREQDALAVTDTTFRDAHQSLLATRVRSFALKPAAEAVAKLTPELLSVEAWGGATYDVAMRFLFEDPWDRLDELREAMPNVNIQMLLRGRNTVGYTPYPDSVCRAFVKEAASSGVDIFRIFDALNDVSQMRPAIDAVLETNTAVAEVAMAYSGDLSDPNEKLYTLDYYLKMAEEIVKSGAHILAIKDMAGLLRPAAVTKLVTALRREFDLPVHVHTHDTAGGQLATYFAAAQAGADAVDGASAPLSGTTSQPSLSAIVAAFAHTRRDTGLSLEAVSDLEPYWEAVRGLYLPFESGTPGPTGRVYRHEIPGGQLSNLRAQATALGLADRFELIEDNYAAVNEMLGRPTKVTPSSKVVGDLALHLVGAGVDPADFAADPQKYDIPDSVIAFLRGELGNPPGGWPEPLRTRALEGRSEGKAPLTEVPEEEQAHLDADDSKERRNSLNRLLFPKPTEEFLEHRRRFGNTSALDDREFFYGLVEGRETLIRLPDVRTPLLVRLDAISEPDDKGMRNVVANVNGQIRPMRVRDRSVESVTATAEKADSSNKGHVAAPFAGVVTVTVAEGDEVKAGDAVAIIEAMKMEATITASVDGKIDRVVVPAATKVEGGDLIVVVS
# Procedure: as §1, §6
# To determine the effect of aspartate on the activity of pyruvate carboxylase, aspartate was added at different concentrations in the spectrophotometer cuvette and enzyme activities were measured. […]
# as §4
# pyruvate carboxylase [6] = experiment: Controls for the continuous pyruvate carboxylate assay; assay type: biochemical, Corynebacterium glutamicum; conditions: complete mixture + biotin (complete mixture alone 0.30)
# Procedure: For determination of pyruvate carboxylate activity, the assay mixture contained 10 mM pyruvic acid, 14 mM KHCO3, 4 mM MgCl2, 1.75 mM ATP, 50 μmole acetyl-CoA, 0.3 mg bovine serum albumin, 0.055 U citrate synthase and 50 mM sodium phosphate buffer ([pH 7.5] containing 0.1 mg 5,5′-Dithio-bis(2-nitrobenzoic acid) (DTNB)) in a final volume of 1 ml. The reaction was started at 30° C. with the addition of 10 μl of the permeabilized cell suspension, and the formation of DTNB-thiophenolate was followed over time at 412 nm. Relevant standards and controls were carried out in the same manner.
# as §5
# To confirm that the continuous assay specifically detected pyruvate carboxylase activity, controls were carried out by assaying for activity in absence of each reaction component (Table 1). Using these controls, the detected activity was determined to be a carboxylation reaction requiring pyruvate, Mg and ATP.
# pyruvate carboxylase [7] = experiment: Continuous pyruvate carboxylase assay with permeabilized cells: affinity constants for substrates and basal activity; assay type: biochemical, Corynebacterium glutamicum; conditions: NRRL B-11474 versus ATCC 21253
# [8] = different concentrations of acetyl-CoA
# [9] = ATP above a concentration of 2 mM
molecule,measurement,setting,value
"Corynebacterium glutamicum NRRL B-11474 (BF100) pyruvate carboxylase, feedback-resistant variant (M1V, E153D, A182S, A206S, H227R, A455G, D1120E), SEQ ID NO:2 (Corynebacterium glutamicum ATCC 13032; A182S/A206S/A455G/D1120E/E153D/H227R/M1V)",Km,[1],400 ± 100 µM
same,Km,CC(=O)C(=O)O,1300 ± 300 µM
CC(=O)SCCNC(=O)CCNC(=O)[C@H](O)C(C)(C)COP(=O)(O)OP(=O)(O)OC[C@H]1O[C@@H](n2cnc3c(N)ncnc32)[C@H](O)[C@@H]1OP(=O)(O)O [acetyl-CoA],pyruvate carboxylase activity with increasing acetyl-CoA concentrations,[2]; [8],increased
same,pyruvate carboxylase activity with increasing acetyl-CoA concentrations,[3]; [8],increased
same,Km,citrate synthase,10 µM
"Nc1ncnc2c1ncn2[C@@H]1O[C@H](COP(=O)(O)OP(=O)(O)OP(=O)(O)O)[C@@H](O)[C@H]1O [ATP, adenosine triphosphate]",ATP concentration above which activity is inhibited,[2],> 2 mM
same,inhibition of pyruvate carboxylase activity by ATP,[4]; [9],inhibited
same,inhibition of pyruvate carboxylase activity by ATP,[5]; [9],inhibited
same,ATP concentration above which activity is inhibited,[3],> 2 mM
O=C(O)CCCC[C@@H]1SC[C@@H]2NC(=O)N[C@@H]21 [biotin],Detected Activity,pyruvate carboxylase [6],0.35 Abs/min.mg DCW
"O=C(O)O [HCO3−, bicarbonate]",Km,"[4]; read-out: KM(HCO3−), permeabilized cells, pH 7.5, 30° C.",14400 ± 4000 µM
same,Km,"[5]; permeabilized cells, pH 7.5, 30° C., read-out: KM(HCO3−)",2900 ± 800 µM
B1,basal pyruvate carboxylase activity relative to ATCC 21253,pyruvate carboxylase [7],about 5 times

# Reference: patent US6965021B2, “Feedback-resistant pyruvate carboxylase gene from corynebacterium” (Archer-Daniels-Midland Company, priority 2000, dated 2005)
